Experimental findings from US10253069B2, “Compositions and methods for regulating arterial tone” (University of Virginia Patent Foundation, priority 2012, dated 2019) are described below.

Holding throughout (set-up): species or system mouse
Assay [1] deals with thoracodorsal arteries. In words: Pressure myography on thoracodorsal arteries, phenylephrine dose response with peptides.
In assay [2] the test system is abdominal aortic rings. In words: Abdominal aorta ring assay. As to conditions: compared to untreated aortas or aortas treated with Scr X. On the procedure: Abdominal aortas were isolated, cut into 2 mm wide rings and mounted on a DMT myograph system with low bath volumes as previously described^16. Briefly, rings were stretched at 1.2× resting length in Krebs solution and allowed to equilibrate for 30 min at 37° C. prior to depolarization with […] K^+ [i]. Following the high K^+ contraction, rings were returned to Krebs solution and incubated with 5 μmol/L Scr X or Hb α X peptide for 20 minutes. Cumulative concentrations of phenylephrine (PE) (10^−10-10^−4 mol/L) were added to the rings and the magnitude of the tension response measured in milli-newtons.

In assay [3] the test system is thoracodorsal arteries from eNOS−/− animals. In words: Pressure myography on thoracodorsal arteries from eNOS−/− mice.

In the case of “Peptide LSFPTTKTYF (SEQ ID NO:2), first ten amino acids of the Hb α sequence, with HIV-tat tag YGRKKRRQRRR at the N-terminus [Hb α X]”, the “Constriction in phenylephrine dose response curves” value in assay [1] (compared to untreated arteries) was “significant decrease in constriction”. Also, in assay [1] (phenylephrine dose response, thoracodorsal arteries perfused with peptide), the “Emax, vascular reactivity dose response curves” value stood at 68.0 ± 5.3 % initial diameter. Also, the “Constriction in phenylephrine dose response curves with L-NAME” value in assay [1] (plus L-NAME 100 μmol/L) was “reversed”. For the same substance, the “Phenylephrine dose response curves” value in assay [2] is recorded as “no significant change”. Further, in assay [3], the “Magnitude of phenylephrine induced constriction” value is recorded as “no alteration”.
